Reference: patent US20210029998A1, “ACIDIC ANTIMICROBIAL COMPOSITION” (The Procter & Gamble Company, priority 2019, published 2021)
Where a name gives a salt, the structure may show the parent alone.

Tested on: Staphylococcus aureus (S. aureus—ATCC #6538)
Experiment: Minimum Biocidal Concentration (MBC) in suspension
Type: cell-based
Description: B) Antibacterial Efficacy (Minimum Biocidal Concentration in Suspension) The antimicrobial efficacy of the antimicrobial agent in the composition is determined by measuring its Minimum Biocidal Concentration (MBC). The MBC is defined as the lowest absolute concentration of the particular antimicrobial active which provides complete kill (zero bacterial growth). The MBC of the compositions herein is determined against the bacterium, Staphylococcus aureus (S. aureus—ATCC #6538), a gram positive bacterium, These microorganisms are representative of natural contaminants in many consumer and industrial applications. The bacteria inoculum is prepared by transferring several colonies from a Tryptone Soy Agar (TSA) plate to a saline solution (0.85% NaCl) comprising 5% of horse serum as additional soil load when indicated, the bacteria concentration in this saline solution is determined by measuring the % Transmittance at 425 nm and adjusted by either adding more bacteria or more saline solution until the % Transmittance at 425 nm is between 23-25% which corresponds to a bacteria concentration of 10^8 CFU/ml. The antimicrobial agent was added to the composition at a level of 1000 ppm, 500 ppm, or 200 ppm, or 100 ppm or 50 ppm. 200 μL of the antimicrobial hard surface cleaning composition was dosed into one well of row A of a 96 well microtiter plate. Each subsequent well (rows B to G) were dosed with 100 μL of the same hard surface cleaning composition, without the addition of the antimicrobial agent. 100 μL of the antimicrobial hard surface cleaning composition was transferred from row A to row B and mixed. 100 μL of the composition was then transferred from row B to row C and mixed, and the process repeated to row G. As such, the concentration of the antimicrobial agent underwent two-fold dilution in adjacent wells, while the concentration of the other actives in the hard surface cleaning composition remained constant across all the wells in the same column. 10 μL of the 10^8 CFU/ml bacteria suspension in saline was added to wells A to F of the microtiter plate with row G kept as a nil bacteria control. The final volume in each well was 110 μL, except for row G which comprised 100 μL of the hard surface cleaning composition and no bacteria suspension. Bacterial inoculation to each column was staggered by 30 seconds to allow for equal incubation times in all wells so that the contact time between the bacteria and the antimicrobial active for all samples was 6 mins. After this contact time, 10 μL of each test solution was transferred to 90 μL of neutraliser solution (Modified Letheen Broth+1.5% Polysorbate 80, supplied by BioMérieux) to stop the antimicrobial action of the antimicrobial active matching the stagger of the inoculation. 2 μL of this solution was plated onto a TSA plate matching the stagger of the inoculation so that all samples are exposed to the neutralizer for the same period of time. The plate is incubated at 32.5° C. for 48 h for S. aureus. MBC concentration is taken as the lowest concentration of the antimicrobial active at which no visible colony growth is observed on the TSA plate. The antibacterial efficacy of the bispyridinium alkane octenidine hydrochloride was compared to that of the quaternary ammonium compound n-alkyl dimethyl benzyl ammonium chloride/n-alkyl dimethyl ethylbenzyl ammonium chloride (BTC®2125-Stepan) in acidic compositions comprising 1% of the indicated surfactant. Compositions were acidified using either an inorganic acid (hydrochloric acid) or an organic acid (citric acid). The minimal biocidal concentration (MBC) in suspension of each antibacterial active against a gram positive bacterium (Staphylococcus aureus) was measured in the presence of 5% horse serum to mimic stressed soiled conditions. Contact time was 6 minutes except for the composition with 1% of dodecyldimethyl amine oxide that was 30 seconds.

CCCCCCCCN=c1ccn(CCCCCCCCCCn2ccc(=NCCCCCCCC)cc2)cc1 [Octenidine, octenidine dihydrochloride] was tested, and the MBC (ATCC6538, 0.1 h, pH 3.83, acidic composition with 1% w/v D-glucopyranose oligomeric decyl octyl glucoside (Triton CG 50), citric acid, pH 3.83, 5% horse serum, contact time 6 minutes) was 62.5 µg/mL, the MBC (ATCC6538, 0.1 h, pH 3.83, acidic composition with 1% w/v cocoamidopropyl hydroxysultaine (Mackam SB 50), HCl, pH 3.83, 5% horse serum, contact time 6 minutes) was 62.5 µg/mL and the MBC (ATCC6538, 0.1 h, pH 3.86, acidic composition with 1% w/v C9-C11 alcohol EO8 (Neodol 91-8), HCl, pH 3.86, 5% horse serum, contact time 6 minutes) was 62.5 µg/mL. For the same molecule, the MBC (ATCC6538, 0.1 h, pH 3.86, acidic composition with 1% w/v C10 EO5 alcohol ethoxylate (Lutensol ON 50), HCl, pH 3.86, 5% horse serum, contact time 6 minutes) was less than 31 µg/mL, the MBC (ATCC6538, 0.1 h, pH 3.87, acidic composition with 1% w/v 2-ethylhexyl PO5EO6 alkylalkoxylate (Ecosurf EH6), HCl, pH 3.87, 5% horse serum, contact time 6 minutes) was less than 31 µg/mL and the MBC (ATCC6538, pH 3.88, acidic composition with 1% w/v dodecyl dimethyl amine oxide (Empigem OB), citric acid, pH 3.88, 5% horse serum, contact time 30 seconds) was 62.5 µg/mL.
